Tests used:
[1] = tested on: patients treated with atorvastatin; conditions: human, in vivo; cited from earlier work
[2] = Schachter et al., 2005; cited from earlier work
[3] = cited from earlier work
[4] = tested on: cytochrome P(450) enzymes; conditions: Schachter et al., 2005; cited from earlier work
[5] = tested on: cisplatin-induced hearing loss in patients with head and neck cancer; assay: Clinical hearing status (PTA of 1, 2 and 4 kHz) at follow-up after cisplatin therapy; type: in vivo, human

Row | SMILES | lipophilicity [2] | metabolism by the cytochrome P(450) system [4] | hearing status at follow-up: Mild (PTA >20, <40), number of ears ([5]; post-cisplatin therapy) [No. Ears] | hearing status at follow-up: Mild (PTA >20, <40), percent of ears ([5]; post-cisplatin therapy) | hearing status at follow-up: Moderate (PTA ≥40, ≤70), number of ears ([5]; post-cisplatin therapy) [No. Ears] | hearing status at follow-up: Normal (PTA ≤20), number of ears ([5]; post-cisplatin therapy) [No. Ears] | hearing status at follow-up: Profound (PTA ≥95), number of ears ([5]; post-cisplatin therapy) [No. Ears] | hearing status at follow-up: Severe (PTA >70, <95), number of ears ([5]; post-cisplatin therapy) [No. Ears] | also measured
1 | CC(C)c1c(C(=O)Nc2ccccc2)c(-c2ccccc2)c(-c2ccc(F)cc2)n1CC[C@@H](O)C[C@@H](O)CC(=O)[O-].CC(C)c1c(C(=O)Nc2ccccc2)c(-c2ccccc2)c(-c2ccc(F)cc2)n1CC[C@@H](O)C[C@@H](O)CC(=O)[O-].[Ca+2] [atorvastatin calcium] | – | – | – | – | – | – | – | – | incidence of persistent serum transaminase elevations, 10 mg [1]: 0.2%; incidence of persistent serum transaminase elevations, 20 mg [1]: 0.2%; incidence of persistent serum transaminase elevations, 40 mg [1]: 0.6%; incidence of persistent serum transaminase elevations, 80 mg [1]: 2.3%; patients with persistent elevations (>3 times ULN on 2 or more occasions) in serum transaminases [1]: 0.7%
2 | CC(C)n1c(/C=C/C(O)CC(O)CC(=O)O)c(-c2ccc(F)cc2)c2ccccc21 (centres unmarked) [fluvastatin] | relatively lipophilic | – | – | – | – | – | – | – | elimination half-life ([3]; Schachter et al., 2005): 1 h
3 | O=C(O)C[C@H](O)C[C@H](O)/C=C/c1c(C2CC2)nc2ccccc2c1-c1ccc(F)cc1 [pitavastatin] | relatively lipophilic | limited metabolism | 4 | (100.00) % | 0 | 0 | 0 | 0 | change of hearing status over cisplatin therapy, in words ([5]; n=2 subjects): started and ended therapy with a bilateral mild hearing loss
4 | CC[C@H](C)C(=O)O[C@H]1C[C@H](O)C=C2C=C[C@H](C)[C@H](CC[C@@H](O)C[C@@H](O)CC(=O)O)[C@H]21 [pravastatin] | relatively hydrophilic | not significantly metabolized | 8 | (33.33) % | 6 | 9 | 0 | 1 | hearing status at follow-up: Moderate (PTA ≥40, ≤70), percent of ears ([5]; post-cisplatin therapy): (25.00) %; hearing status at follow-up: Normal (PTA ≤20), percent of ears ([5]; post-cisplatin therapy): (37.50) %; hearing status at follow-up: Severe (PTA >70, <95), percent of ears ([5]; post-cisplatin therapy): (4.17) %; hepatoselectivity ([3]; compared with lipophilic agents, Schachter et al., 2005): greater hepatoselectivity
5 | CCC(C)(C)C(=O)O[C@H]1C[C@@H](C)C=C2C=C[C@H](C)[C@H](CC[C@@H]3C[C@@H](O)CC(=O)O3)[C@H]21 [simvastatin] | – | – | – | – | – | – | – | – | half-life ([3]; Sirtori et al., 2014): 12 h

Source: US20240293361A1, “Use of Statins to Treat or Prevent Drug-Induced Hearing Loss” (The United States of America, as represented by the …, priority 2020, published 2024)
